According to PubChem BioAssay (NCI):
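Each compound was tested at five concentrations against cells in 96-well plates for 48 hours. At the GI50, growth is halved. TGI: concentration producing complete growth inhibition.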

These compounds were tested on NCI/ADR-RES ovarian (assay: DTP human tumour cell line panel, 48 h).

SMILES	GI50	TGI
COc1ccc(-c2nn(-c3cccc(Cl)c3)cc2-c2nc(N)[nH]c(=O)c2C#N)cc1	3.33 µM	15.9 µM
COc1cc2c3c(n(CCCN(CCO)CCO)c(=O)c2cc1OC)-c1cc2c(cc1C3=O)OCO2	0.117 µM	–
CNCCn1c(=O)c2cc(OC)c(OC)cc2c2cnc3cc4c(cc3c21)OCO4	0.032 µM	1.51 µM
O=C(CCN1CCOCC1)Nc1cccc(-n2cc(-c3ccncc3)c(-c3ccc(Cl)c(O)c3)n2)c1	2.29 µM	> 100 µM
C=C(C)[C@@H]1CC[C@]2(C)[C@H](CC[C@@H]3[C@@H]([C@@](C)(O)CCC=C(C)C)CC[C@]32C)[C@@]1(C)CCC(=O)O	20.2 µM	41.3 µM
c1ccc(NCCSc2nc3ccccc3s2)cc1	–	> 100 µM
Oc1ccc(Oc2cnc3ccccc3n2)cc1	> 100 µM	> 100 µM
Cc1ccc2occ/c(=N\Nc3ccccc3)c2c1	–	> 100 µM
CC(=O)NC1CONC1=O (stereo not drawn)	–	> 100 µM
Oc1ccc(N=Nc2nccs2)c(O)c1	2.58 µM	9.1 µM
COc1ccc2c(c1)C(C)Cc1c(ncnc1-n1cnc3ccccc31)N2C (stereo not drawn)	0.395 µM	> 100 µM
COc1ccc(-c2noc(N)c2-c2cc(OC)c3c(c2)OCO3)cc1	0.721 µM	–
NCCCn1c2c(c3ccccc3c1=O)C(=O)c1ccccc1-2	0.145 µM	2.68 µM
O=C1c2ccccc2C(=O)c2c(NCCN=Cc3ccccc3O)cccc21	10.5 µM	> 100 µM
Oc1ccc(/C=C/c2cc(O)cc3c2C(c2cc(O)cc(O)c2)C(c2ccc(O)c(O)c2)O3)cc1 (stereo not drawn)	–	> 100 µM
CC1(C)N=C(N)N=C(N)N1c1cccc(OCCOc2cccc([N+](=O)[O-])c2)c1	> 100 µM	> 100 µM
O=C(NC1CCCCC1)c1ccc(Nc2ncnc3c2cnn3-c2ccccc2)cc1	7.06 µM	> 100 µM
CCc1nc(Cl)c(Cl)c(Cl)n1	–	> 100 µM
O=[N+]([O-])c1ccc(Sc2c3ccccc3nc3ccccc23)cn1	–	> 100 µM
C=CCn1c(SCC(=O)Nc2ccc(C(=O)/C=C/c3cc(OC)c(OC)c(OC)c3)cc2)nnc1-c1ccc(OC)cc1	1.45 µM	17.6 µM
Clc1nc(Cl)c2ncn(Cc3ccccc3Cn3cnc4c(Cl)nc(Cl)nc43)c2n1	7.04 µM	17.2 µM
COc1ccc(-c2ccc(NNC(=O)c3ccc(F)cc3)nn2)cc1OC	43.2 µM	> 100 µM
O=C(N/N=C/c1ccc(O)cc1O)c1cccnc1	3.26 µM	> 100 µM
O=C(NNc1cnccn1)c1nc2cc(F)ccc2n2cccc12	0.461 µM	> 44.8 µM
NCCCOc1cc2ccccc2cc1C(=O)NCCCOc1cc2ccccc2cc1C(=O)Nc1ccc(Cl)cc1O	1.22 µM	6.01 µM
NC(N)=N/N=C(\N=Nc1ccccc1)c1ccc(Cl)cc1	2.76 µM	10.4 µM
Cc1cc(NCCCCNc2ccnc3cc(Cl)ccc23)nc(Nc2ccc(C(=O)N3CCCCC3)cc2)n1	3.04 µM	11.4 µM
c1ccc2c(c1)c1ccccc1c1ccccc21	> 100 µM	> 100 µM
Cc1c2c(C(N)=O)nccc2c(C)c2c1c1ccccc1n2Cc1ccccc1	–	27.9 µM

The compounds below were run on HCT-15 colon (assay: DTP human tumour cell line panel, 48 h).

SMILES	GI50	TGI
COc1ccc(-c2nn(-c3cccc(Cl)c3)cc2-c2nc(N)[nH]c(=O)c2C#N)cc1	5.07 µM	> 100 µM
COc1cc2c3c(n(CCCN(CCO)CCO)c(=O)c2cc1OC)-c1cc2c(cc1C3=O)OCO2	0.838 µM	20.7 µM
CNCCn1c(=O)c2cc(OC)c(OC)cc2c2cnc3cc4c(cc3c21)OCO4	0.0359 µM	1.55 µM
O=C(CCN1CCOCC1)Nc1cccc(-n2cc(-c3ccncc3)c(-c3ccc(Cl)c(O)c3)n2)c1	1.24 µM	10.8 µM
C=C(C)[C@@H]1CC[C@]2(C)[C@H](CC[C@@H]3[C@@H]([C@@](C)(O)CCC=C(C)C)CC[C@]32C)[C@@]1(C)CCC(=O)O	15.4 µM	31 µM
c1ccc(NCCSc2nc3ccccc3s2)cc1	–	43 µM
Oc1ccc(Oc2cnc3ccccc3n2)cc1	> 100 µM	> 100 µM
Cc1ccc2occ/c(=N\Nc3ccccc3)c2c1	–	> 100 µM
CC(=O)NC1CONC1=O (stereo not drawn)	–	> 100 µM
Oc1ccc(N=Nc2nccs2)c(O)c1	2.85 µM	14.9 µM
COc1ccc2c(c1)C(C)Cc1c(ncnc1-n1cnc3ccccc31)N2C (stereo not drawn)	0.367 µM	10.9 µM
COc1ccc(-c2noc(N)c2-c2cc(OC)c3c(c2)OCO3)cc1	0.616 µM	> 100 µM
NCCCn1c2c(c3ccccc3c1=O)C(=O)c1ccccc1-2	0.0762 µM	1.38 µM
O=C1c2ccccc2C(=O)c2c(NCCN=Cc3ccccc3O)cccc21	4.03 µM	16.7 µM
Oc1ccc(/C=C/c2cc(O)cc3c2C(c2cc(O)cc(O)c2)C(c2ccc(O)c(O)c2)O3)cc1 (stereo not drawn)	–	45.4 µM
CC1(C)N=C(N)N=C(N)N1c1cccc(OCCOc2cccc([N+](=O)[O-])c2)c1	> 100 µM	> 100 µM
O=C(NC1CCCCC1)c1ccc(Nc2ncnc3c2cnn3-c2ccccc2)cc1	99.3 µM	> 100 µM
CCc1nc(Cl)c(Cl)c(Cl)n1	–	> 100 µM
O=[N+]([O-])c1ccc(Sc2c3ccccc3nc3ccccc23)cn1	–	28.8 µM
C=CCn1c(SCC(=O)Nc2ccc(C(=O)/C=C/c3cc(OC)c(OC)c(OC)c3)cc2)nnc1-c1ccc(OC)cc1	0.277 µM	1.26 µM
Clc1nc(Cl)c2ncn(Cc3ccccc3Cn3cnc4c(Cl)nc(Cl)nc43)c2n1	1.47 µM	3.32 µM
COc1ccc(-c2ccc(NNC(=O)c3ccc(F)cc3)nn2)cc1OC	65.5 µM	> 100 µM
O=C(N/N=C/c1ccc(O)cc1O)c1cccnc1	0.614 µM	> 100 µM
O=C(NNc1cnccn1)c1nc2cc(F)ccc2n2cccc12	0.183 µM	> 100 µM
NCCCOc1cc2ccccc2cc1C(=O)NCCCOc1cc2ccccc2cc1C(=O)Nc1ccc(Cl)cc1O	0.658 µM	2.32 µM
NC(N)=N/N=C(\N=Nc1ccccc1)c1ccc(Cl)cc1	3.02 µM	14.9 µM
Cc1cc(NCCCCNc2ccnc3cc(Cl)ccc23)nc(Nc2ccc(C(=O)N3CCCCC3)cc2)n1	1.28 µM	3.13 µM
c1ccc2c(c1)c1ccccc1c1ccccc21	> 100 µM	> 100 µM
Cc1c2c(C(N)=O)nccc2c(C)c2c1c1ccccc1n2Cc1ccccc1	–	44.2 µM

Each compound was assayed on SR leukemia (assay: DTP human tumour cell line panel, 48 h).

SMILES	GI50	TGI
COc1ccc(-c2nn(-c3cccc(Cl)c3)cc2-c2nc(N)[nH]c(=O)c2C#N)cc1	3.73 µM	21.2 µM
COc1cc2c3c(n(CCCN(CCO)CCO)c(=O)c2cc1OC)-c1cc2c(cc1C3=O)OCO2	< 0.01 µM	< 0.01 µM
CNCCn1c(=O)c2cc(OC)c(OC)cc2c2cnc3cc4c(cc3c21)OCO4	< 0.01 µM	–
O=C(CCN1CCOCC1)Nc1cccc(-n2cc(-c3ccncc3)c(-c3ccc(Cl)c(O)c3)n2)c1	0.685 µM	8.53 µM
C=C(C)[C@@H]1CC[C@]2(C)[C@H](CC[C@@H]3[C@@H]([C@@](C)(O)CCC=C(C)C)CC[C@]32C)[C@@]1(C)CCC(=O)O	16.5 µM	44.7 µM
c1ccc(NCCSc2nc3ccccc3s2)cc1	–	> 100 µM
Oc1ccc(Oc2cnc3ccccc3n2)cc1	78.5 µM	> 100 µM
Cc1ccc2occ/c(=N\Nc3ccccc3)c2c1	–	> 100 µM
CC(=O)NC1CONC1=O (stereo not drawn)	–	> 100 µM
Oc1ccc(N=Nc2nccs2)c(O)c1	2.12 µM	9.8 µM
COc1ccc2c(c1)C(C)Cc1c(ncnc1-n1cnc3ccccc31)N2C (stereo not drawn)	0.33 µM	28 µM
